Assay: Example 2: liver biomarkers (albumin, gamma glutamyl transferase, total bilirubin, ALT, AST, ALP) in short bowel syndrome patients, every four weeks for 24 weeks; also sorted by >10% change from baseline
Assay type: in vivo, Human
Details: 0.05 mg/kg/d
Description: To further confirm the results of Example 1, a further study was conducted involving more individuals and additional diagnostic biomarkers. Human patients with short bowel syndrome were divided into two groups: a control group (43 total individuals) to receive placebo, and an experimental group (42 total individuals) to receive teduglutide at 0.05 mg/kg/day throughout the study. Patients were treated by subcutaneous injection of placebo or the appropriate dose of teduglutide. Known biomarkers of liver function were monitored every four weeks, for 24 weeks. The liver biomarkers tested included albumin, gamma glutamyl transferase, total bilirubin, ALT and AST and ALP. Before administration of placebo or teduglutide, diagnostic biomarker levels were tested to establish a baseline for each individual.
To determine the effect of GLP-2 on the levels of the diagnostic biomarkers, the average level of each biomarker was measured for the placebo and teduglutide treated groups for each visit. Furthermore, the average change from baseline was calculated using the established baseline values. For FIGS. 17-28, p-values were calculated using the t-test.
P values are provided, which were calculated for each distribution of biomarker changes for each week using the chi-squared test.

Compound: CC[C@H](C)[C@H](NC(=O)[C@H](Cc1ccccc1)NC(=O)[C@H](CC(=O)O)NC(=O)[C@H](CCCNC(=N)N)NC(=O)[C@H](C)NC(=O)[C@H](C)NC(=O)[C@H](CC(C)C)NC(=O)[C@H](CC(N)=O)NC(=O)[C@H](CC(=O)O)NC(=O)[C@H](CC(C)C)NC(=O)[C@@H](NC(=O)[C@@H](NC(=O)[C@H](CC(N)=O)NC(=O)[C@H](CCSC)NC(=O)[C@H](CCC(=O)O)NC(=O)[C@H](CC(=O)O)NC(=O)[C@H](CO)NC(=O)[C@H](Cc1ccccc1)NC(=O)[C@H](CO)NC(=O)CNC(=O)[C@H](CC(=O)O)NC(=O)CNC(=O)[C@@H](N)Cc1c[nH]cn1)[C@@H](C)O)[C@@H](C)CC)C(=O)N[C@@H](CC(N)=O)C(=O)N[C@@H](Cc1c[nH]c2ccccc12)C(=O)N[C@@H](CC(C)C)C(=O)N[C@H](C(=O)N[C@@H](CCC(N)=O)C(=O)N[C@H](C(=O)N[C@@H](CCCCN)C(=O)N[C@H](C(=O)N[C@H](C(=O)N[C@@H](CC(=O)O)C(=O)O)[C@@H](C)O)[C@@H](C)CC)[C@@H](C)O)[C@@H](C)CC [teduglutide]
- Bilirubin: subjects Within 10% of Baseline (Week 8, m = 40): 10 (25.0%) n (%)
- Bilirubin: subjects with >10% decrease from Baseline (Week 8, m = 40): 20 (50.0%) n (%)
- Bilirubin: subjects with >10% increase from Baseline (Week 8, m = 40): 10 (25.0%) n (%)
- ALKALINE PHOSPHATASE Change from Baseline Median (Week 12): −23 U/L
- ALT Change from Baseline, Max (Week 12): 35 U/L
- ALT Change from Baseline, Mean (Week 12): −9.8 U/L
- ALT Change from Baseline, Median (Week 12): −4 U/L
- ALT Change from Baseline, Min (Week 12): −62 U/L
- ALT Observed Value, Max (Week 12): 94 U/L
- ALT Observed Value, Min (Week 12): 11 U/L
- AST Change from Baseline, Max (Week 12): 34 U/L
- AST Change from Baseline, Mean (Week 12): −4.2 U/L
- AST Change from Baseline, Median (Week 12): −5 U/L
- AST Change from Baseline, Min (Week 12): −39 U/L
- AST Observed Value, Max (Week 12): 60 U/L
- AST Observed Value, Median (Week 12): 25 U/L
- AST Observed Value, Min (Week 12): 9 U/L
- Albumin Change from Baseline, Max (Week 12): 5 g/L
- Albumin Change from Baseline, Mean (Week 12): -0.9 g/L
- Albumin Change from Baseline, Median (Week 12): -1 g/L
- Albumin Change from Baseline, Min (Week 12): -7 g/L
- Albumin Observed Value, Max (Week 12): 47 g/L
- Albumin Observed Value, Median (Week 12): 41 g/L
- Albumin Observed Value, Min (Week 12): 35 g/L
- Alkaline Phosphatase Change from Baseline, Max (Week 12): 25 U/L
- Alkaline Phosphatase Change from Baseline, Min (Week 12): −127 U/L
- Alkaline Phosphatase Observed Value, Max (Week 12): 304 U/L
- Alkaline Phosphatase Observed Value, Median (Week 12): 98 U/L
- Alkaline Phosphatase Observed Value, Min (Week 12): 52 U/L
- Bilirubin Change from Baseline, Max (Week 12): 5.2 µmol/L
- Bilirubin Change from Baseline, Median (Week 12): -0.05 µmol/L
- Bilirubin Change from Baseline, Min (Week 12): -13.2 µmol/L
- Bilirubin Observed Value, Max (Week 12): 57.8 µmol/L
- Bilirubin Observed Value, Min (Week 12): 3.2 µmol/L
- Gamma Glutamyl Transferase Change from Baseline, Max (Week 12): 56 U/L
- Gamma Glutamyl Transferase Change from Baseline, Mean (Week 12): −8.1 U/L
- Gamma Glutamyl Transferase Change from Baseline, Median (Week 12): −4 U/L
- Gamma Glutamyl Transferase Change from Baseline, Min (Week 12): −162 U/L
- Gamma Glutamyl Transferase Observed Value, Max (Week 12): 240 U/L
- Gamma Glutamyl Transferase Observed Value, Median (Week 12): 51 U/L
- Gamma Glutamyl Transferase Observed Value, Min (Week 12): 8 U/L
- ALT: subjects Within 10% of Baseline (Week 12, m = 34): 10 (29.4%) n (%)
- ALT: subjects with >10% decrease from Baseline (Week 12, m = 34): 17 (50.0%) n (%)
- ALT: subjects with >10% increase from Baseline (Week 12, m = 34): 7 (20.6%) n (%)
- AST: subjects Within 10% of Baseline (Week 12, m = 34): 6 (17.6%) n (%)
- AST: subjects with >10% decrease from Baseline (Week 12, m = 34): 21 (61.8%) n (%)
- AST: subjects with >10% increase from Baseline (Week 12, m = 34): 7 (20.6%) n (%)
- Albumin: subjects Within 10% of Baseline (Week 12, m = 34): 31 (91.2%) n (%)
- Albumin: subjects with >10% decrease from Baseline (Week 12, m = 34): 2 (5.9%) n (%)
- Albumin: subjects with >10% increase from Baseline (Week 12, m = 34): 1 (2.9%) n (%)
- Alkaline Phosphatase: subjects Within 10% of Baseline (Week 12, m = 34): 6 (17.6%) n (%)
- Alkaline Phosphatase: subjects with >10% decrease from Baseline (Week 12, m = 34): 23 (67.6%) n (%)
- Alkaline Phosphatase: subjects with >10% increase from Baseline (Week 12, m = 34): 5 (14.7%) n (%)
- Bilirubin: subjects Within 10% of Baseline (Week 12, m = 34): 10 (29.4%) n (%)
- Bilirubin: subjects with >10% decrease from Baseline (Week 12, m = 34): 15 (44.1%) n (%)
- Bilirubin: subjects with >10% increase from Baseline (Week 12, m = 34): 9 (26.5%) n (%)
- ALT Change from Baseline, Max (Week 16): 45 U/L
- ALT Change from Baseline, Mean (Week 16): −8.0 U/L
- ALT Change from Baseline, Median (Week 16): −3 U/L
- ALT Change from Baseline, Min (Week 16): −64 U/L
- ALT Observed Value, Max (Week 16): 140 U/L
- ALT Observed Value, Min (Week 16): 13 U/L
- AST Change from Baseline, Max (Week 16): 20 U/L
- AST Change from Baseline, Mean (Week 16): −3.3 U/L
- AST Change from Baseline, Median (Week 16): −3 U/L
- AST Change from Baseline, Min (Week 16): −42 U/L
- AST Observed Value, Max (Week 16): 65 U/L
- AST Observed Value, Median (Week 16): 26 U/L
- AST Observed Value, Min (Week 16): 9 U/L
- Albumin Change from Baseline, Max (Week 16): 3 g/L
- Albumin Change from Baseline, Mean (Week 16): -0.7 g/L
- Albumin Change from Baseline, Median (Week 16): -0.5 g/L
- Albumin Change from Baseline, Min (Week 16): -5 g/L
- Albumin Observed Value, Max (Week 16): 49 g/L
- Albumin Observed Value, Median (Week 16): 42 g/L
- Albumin Observed Value, Min (Week 16): 32 g/L
- Alkaline Phosphatase Change from Baseline, Max (Week 16): 71 U/L
- Alkaline Phosphatase Change from Baseline, Min (Week 16): −104 U/L
- Alkaline Phosphatase Observed Value, Max (Week 16): 311 U/L
- Alkaline Phosphatase Observed Value, Min (Week 16): 46 U/L
- Bilirubin Change from Baseline, Max (Week 16): 5.2 µmol/L
- Bilirubin Change from Baseline, Min (Week 16): -37.7 µmol/L
- Bilirubin Observed Value, Max (Week 16): 27.4 µmol/L
- Bilirubin Observed Value, Mean (Week 16): 9.40 µmol/L
- Bilirubin Observed Value, Median (Week 16): 8.1 µmol/L
- Bilirubin Observed Value, Min (Week 16): 3.4 µmol/L
- Gamma Glutamyl Transferase Change from Baseline, Max (Week 16): 90 U/L
- Gamma Glutamyl Transferase Change from Baseline, Mean (Week 16): −7.0 U/L
- Gamma Glutamyl Transferase Change from Baseline, Median (Week 16): −5.5 U/L
- Gamma Glutamyl Transferase Change from Baseline, Min (Week 16): −161 U/L
- Gamma Glutamyl Transferase Observed Value, Max (Week 16): 294 U/L
- Gamma Glutamyl Transferase Observed Value, Median (Week 16): 54 U/L
- Gamma Glutamyl Transferase Observed Value, Min (Week 16): 6 U/L
- ALT: subjects Within 10% of Baseline (Week 16, m = 38): 10 (26.3%) n (%)
- ALT: subjects with >10% decrease from Baseline (Week 16, m = 38): 20 (52.6%) n (%)
- ALT: subjects with >10% increase from Baseline (Week 16, m = 38): 8 (21.1%) n (%)
- AST: subjects Within 10% of Baseline (Week 16, m = 38): 12 (31.6%) n (%)
- AST: subjects with >10% decrease from Baseline (Week 16, m = 38): 19 (50.0%) n (%)
- AST: subjects with >10% increase from Baseline (Week 16, m = 38): 7 (18.4%) n (%)
- Albumin: subjects Within 10% of Baseline (Week 16, m = 38): 36 (94.7%) n (%)
- Albumin: subjects with >10% decrease from Baseline (Week 16, m = 38): 2 (5.3%) n (%)
- Albumin: subjects with >10% increase from Baseline (Week 16, m = 38): 0 n (%)

Source: patent publication US20130157954A1, “METHODS FOR TREATMENT OR PROPHYLAXIS OF KIDNEY OR LIVER DYSFUNCTION” (NPS PHARMACEUTICALS, INC., priority 2010, published 2013)
